In series [1] the test system is human CCK-2 receptor transfected A431 cells. Description: Biodistribution of 177Lu-labelled mini-gastrin analogues in tumour-bearing CD1 nu/nu mice. To be noted: 4 hours after injection. The class given is in vivo. The protocol: PP-F11N has been investigated according to the CD1 nu/nu mice model. […] FIG. 2 illustrates the biodistribution of PP-F11, PP-F11N and oxidized PP-F11 ox (oxidized PP-F11) after 4 hours in the athymic CD1 nu/nu mice model. Tumour positive: with human CCK-2 receptor transfected A431 cells on one side of the mouse; tumor negative: CCK-2 receptor negative A431 cells on the other side of the mouse. The effect of the higher tumor uptake by the exchange of methionine with norleucine is specifically apparent with compounds having the DGlu6 sequence, different from compounds having a sequence with DGLn6 which is referred to as PP-F10.
CD1 nu/nu mice were injected with 5×10^6 A431 cells. CCK-2 receptor positive A431 cells' were injected into one flank and mock cells on the other as an unspecific control. The tumors reach a weight of about 80 to 120 mg after about 10 days. 150-200 kBq (5 pmol) of the radiolabelled peptides were injected into the tail vein. Mice were killed by CO2 asphyxiation after defined time points post injection. The organs were dissected, weighted and the activity was measured. The % injected activity per gram (% i.A./g) was calculated. The animal experiments were approved by the local animal welfare committee and performed according to national regulations.

The nature of series [2]: Stability of 177Lu-labelled mini-gastrin analogues in human serum, metabolites by HPLC. The class given is in vitro ADME. To be noted: compared to PP-F11, PP-F10N and PP-F10. The protocol: 12 MBq of the radiolabelled compound was incubated in 2 mL fresh human plasma. A 40 μL probe was taken after 0, 1, 2, 18, 24, 48 and 72 h and added 200 μL (50% Methanol and 50% Acetonitril) in a Mini-UniPrep Filter. The solution is filtered after vortexing. 40 μL of the filtered solution is analyzed by HPLC.

Take `CCCC[C@H](NC(=O)[C@H](Cc1c[nH]c2ccccc12)NC(=O)CNC(=O)[C@H](Cc1ccc(O)cc1)NC(=O)[C@H](C)NC(=O)[C@@H](CCC(=O)O)NC(=O)[C@@H](CCC(=O)O)NC(=O)[C@@H](CCC(=O)O)NC(=O)[C@@H](CCC(=O)O)NC(=O)[C@@H](CCC(=O)O)NC(=O)[C@@H](CCC(=O)O)NC(=O)CN1CCN(CC(=O)O)CCN(CC(=O)O)CCN(CC(=O)O)CC1)C(=O)N[C@@H](CC(=O)O)C(=O)N[C@@H](Cc1ccccc1)C(N)=O` [PP-F11N]: the “accumulation in the kidneys” value in series [1] was “very few accumulation in the kidneys”. Moreover, in series [2], the pharmacologic stability entry is “highest pharmacologic stability of all probands”.

Source of the values: US10130724B2, “Mini-gastrin analogue, in particular for use in CCK2 receptor positive tumour diagnosis and/or treatment” (PAUL SCHERRER INSTITUT, priority 2013, dated 2018).
